Read-outs that look alike come from different tables or passages of the source. Each block holds one compound with its values, some of them ahead of it.
Tests used:
LuxR [1] = molecular target: T1, LuxR (Aliivibrio fischeri, UniProt P12746); experiment: cell-based; parameters: species or system Escherichia coli DH5alpha; E. coli receiver cells, GFP reporter under aTF-responsive promoter, flow cytometry, dose-response with pure synthetic signal molecules; details: synthetic pure signal, replicate
T1 construct: expressed in E. coli DH5alpha receiver cells; GFP reporter under the Plux* promoter
T1 sequence (P12746 1-250): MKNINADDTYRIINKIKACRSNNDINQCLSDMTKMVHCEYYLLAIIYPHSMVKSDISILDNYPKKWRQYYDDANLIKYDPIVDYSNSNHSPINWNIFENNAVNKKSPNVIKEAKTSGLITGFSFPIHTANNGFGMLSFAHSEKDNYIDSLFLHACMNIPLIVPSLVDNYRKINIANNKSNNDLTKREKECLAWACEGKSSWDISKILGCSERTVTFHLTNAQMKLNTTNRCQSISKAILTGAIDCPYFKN
Description: (§1) IV-HSL was chemically synthesized (Supplementary Fig. 21).

LuxR [2] = molecular target: T1, LuxR; experiment: GFP reporter dose-response in E. coli, flow cytometry; assay type: cell-based, Escherichia coli; details: chemically pure signal molecule; M9 medium, 37 °C, 12 h; transcriptional reporter
PhlF = molecular target: T2, PhlF (Pseudomonas protegens, UniProt Q4K422); experiment: cell-based; parameters: species or system Escherichia coli DH5alpha; E. coli receiver cells, GFP reporter under aTF-responsive promoter, flow cytometry, dose-response with pure synthetic signal molecules; details: synthetic pure signal, replicate
T2 construct: expressed in E. coli DH5alpha receiver cells; PphlF-sfGFP reporter
T2 sequence (Q4K422 1-200): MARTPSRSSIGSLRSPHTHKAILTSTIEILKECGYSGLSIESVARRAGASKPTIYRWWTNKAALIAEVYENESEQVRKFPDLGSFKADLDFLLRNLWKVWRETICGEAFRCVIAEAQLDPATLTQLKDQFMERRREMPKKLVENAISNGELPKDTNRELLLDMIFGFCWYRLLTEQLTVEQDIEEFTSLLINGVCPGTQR
Description: as §1

FdeR [3] = molecular target: T3, FdeR (Herbaspirillum seropedicae, UniProt D8J0W4); experiment: cell-based; parameters: species or system Escherichia coli DH5alpha; E. coli receiver cells, GFP reporter under aTF-responsive promoter, flow cytometry, dose-response with pure synthetic signal molecules; details: synthetic pure signal, replicate
T3 construct: gene nodD; expressed in E. coli DH5alpha receiver cells; GFP reporter under the cognate promoter
T3 sequence (D8J0W4 1-309): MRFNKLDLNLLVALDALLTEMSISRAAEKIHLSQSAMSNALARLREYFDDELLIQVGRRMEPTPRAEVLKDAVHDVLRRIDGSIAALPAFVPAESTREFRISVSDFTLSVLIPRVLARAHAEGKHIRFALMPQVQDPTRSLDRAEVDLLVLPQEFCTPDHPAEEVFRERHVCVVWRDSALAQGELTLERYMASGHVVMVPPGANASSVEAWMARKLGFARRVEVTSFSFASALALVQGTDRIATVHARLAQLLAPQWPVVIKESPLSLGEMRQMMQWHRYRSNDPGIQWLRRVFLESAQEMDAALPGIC
Description: as §1

FdeR [4] = molecular target: T3, FdeR; experiment: GFP reporter dose-response in E. coli, flow cytometry; assay type: cell-based, Escherichia coli

SMILES: CCCC(=O)CC(=O)N[C@H]1CCOC1=O [3OC6, 3-oxo-C6-HSL]
EC50 (LuxR [1]; Synthetic [column B]): 0.0108 µM
EC50 (LuxR [1]; Synthetic [column C]): 0.0329 µM
EC50 (LuxR [1]; Synthetic [column D]): 0.0148 µM
EC50 (LuxR [2]): 0.02 µM

EC50 (PhlF; Synthetic [column B]): 18.2 µM
EC50 (PhlF; Synthetic [column C]): 17.7 µM
EC50 (PhlF; Synthetic [column D]): 16.3 µM
SMILES: CC(=O)c1c(O)cc(O)c(C(C)=O)c1O [DAPG, 2,4-diacetylphloroglucinol]

EC50 (FdeR [3]; Synthetic [column B]): 12.1 µM
EC50 (FdeR [3]; Synthetic [column C]): 93.8 µM
EC50 (FdeR [3]; Synthetic [column D]): 47.3 µM
EC50 (FdeR [4]): 51 µM
SMILES: O=C1C[C@@H](c2ccc(O)cc2)Oc2cc(O)cc(O)c21 [NG, naringenin]

Source: PMC7445162, “De novo design of an intercellular signaling toolbox for multi-channel cell–cell communication and biological computation” (Nature Communications, 2020)
